Active and inactive are the calls of the source.
Columns and labels:
Paired box protein Pax-8 = Paired box protein Pax-8 (Homo sapiens, UniProt Q06710); test: PAX8 transcriptional activity inhibition in RMG-I – RMG-I cells, luciferase, cherry-pick, dose response (AID 687027); assay type: functional, cell-based;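 also: luciferase reporter driven by Pax8 target thyroperoxidase promoter measured by SteadyGlo luminescence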
[1] = molecular target: Hepatocyte nuclear factor 4-alpha (Homo sapiens, UniProt P41235); assay type: functional, cell-based;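 also: biochemical luminescence-based dose-response counterscreen measuring inhibition of HNF4 dimerization, run alongside a screen for blockers of ABHD5–perilipin-5 interaction; split luciferase complementation of HNF4 fusion proteins in cell lysate measuring dimerization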
Chain of Hepatocyte nuclear factor 4-alpha (P41235 whole entry, the tested form may be a part): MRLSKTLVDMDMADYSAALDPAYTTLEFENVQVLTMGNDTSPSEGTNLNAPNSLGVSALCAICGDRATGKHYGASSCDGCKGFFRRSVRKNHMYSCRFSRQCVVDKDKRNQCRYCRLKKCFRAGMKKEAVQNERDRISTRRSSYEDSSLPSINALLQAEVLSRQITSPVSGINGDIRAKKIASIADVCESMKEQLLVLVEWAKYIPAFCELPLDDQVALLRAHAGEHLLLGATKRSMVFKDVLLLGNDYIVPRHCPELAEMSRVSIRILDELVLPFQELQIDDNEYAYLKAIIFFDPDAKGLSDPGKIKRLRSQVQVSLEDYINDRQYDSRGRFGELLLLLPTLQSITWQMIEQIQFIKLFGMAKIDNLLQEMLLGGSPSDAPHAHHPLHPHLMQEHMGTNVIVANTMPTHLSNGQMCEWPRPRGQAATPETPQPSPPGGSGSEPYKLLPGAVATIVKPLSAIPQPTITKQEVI

[2] = molecular target: T1, Sentrin-specific protease 1 (Homo sapiens, UniProt Q9P0U3); test: SENP1 catalytic domain blockers, concentration series – biochemical, kinetic FRET, dose response (AID 651697); assay type: functional; settings: read-out: IC50_Mean
T1 sequence (Q9P0U3 whole entry, the tested form may be a part): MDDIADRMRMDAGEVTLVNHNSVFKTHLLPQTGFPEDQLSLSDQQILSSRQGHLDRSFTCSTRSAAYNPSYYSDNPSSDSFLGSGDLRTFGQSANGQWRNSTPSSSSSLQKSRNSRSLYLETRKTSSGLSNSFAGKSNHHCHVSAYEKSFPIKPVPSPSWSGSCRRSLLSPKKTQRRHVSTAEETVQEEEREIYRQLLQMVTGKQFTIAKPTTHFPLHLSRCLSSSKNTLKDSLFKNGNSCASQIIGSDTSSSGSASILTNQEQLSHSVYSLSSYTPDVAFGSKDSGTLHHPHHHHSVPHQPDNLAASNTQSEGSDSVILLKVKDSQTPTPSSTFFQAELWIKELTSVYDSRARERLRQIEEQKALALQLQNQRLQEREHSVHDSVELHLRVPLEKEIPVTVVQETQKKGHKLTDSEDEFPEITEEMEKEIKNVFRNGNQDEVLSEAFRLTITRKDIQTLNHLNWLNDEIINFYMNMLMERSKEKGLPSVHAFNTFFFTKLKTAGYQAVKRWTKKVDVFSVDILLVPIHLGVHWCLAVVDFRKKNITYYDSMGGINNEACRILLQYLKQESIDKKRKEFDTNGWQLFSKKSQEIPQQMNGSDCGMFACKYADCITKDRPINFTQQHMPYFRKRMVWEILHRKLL

[3] = molecular target: T1, Sentrin-specific protease 1; test: Dose response confirmation of small molecule inhibitors of the catalytic domain of the SUMO protease, SENP1 in a FRET assay.; assay type: functional; settings: read-out: IC50_Mean
[4] = molecular target: T2, ATP-dependent translocase ABCB1 (Homo sapiens, UniProt P08183); test: inhibition of BCRP-mediated JC-1 efflux – Ig-MXP3 cells, flow cytometry, set 2, dose response (AID 504566); assay type: functional; settings: read-out: EC50_MICROM_;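 also: flow cytometry median green fluorescence of retained JC-1 dye; potency of efflux pump inhibition measured as rising substrate retention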
T2 sequence (P08183 whole entry): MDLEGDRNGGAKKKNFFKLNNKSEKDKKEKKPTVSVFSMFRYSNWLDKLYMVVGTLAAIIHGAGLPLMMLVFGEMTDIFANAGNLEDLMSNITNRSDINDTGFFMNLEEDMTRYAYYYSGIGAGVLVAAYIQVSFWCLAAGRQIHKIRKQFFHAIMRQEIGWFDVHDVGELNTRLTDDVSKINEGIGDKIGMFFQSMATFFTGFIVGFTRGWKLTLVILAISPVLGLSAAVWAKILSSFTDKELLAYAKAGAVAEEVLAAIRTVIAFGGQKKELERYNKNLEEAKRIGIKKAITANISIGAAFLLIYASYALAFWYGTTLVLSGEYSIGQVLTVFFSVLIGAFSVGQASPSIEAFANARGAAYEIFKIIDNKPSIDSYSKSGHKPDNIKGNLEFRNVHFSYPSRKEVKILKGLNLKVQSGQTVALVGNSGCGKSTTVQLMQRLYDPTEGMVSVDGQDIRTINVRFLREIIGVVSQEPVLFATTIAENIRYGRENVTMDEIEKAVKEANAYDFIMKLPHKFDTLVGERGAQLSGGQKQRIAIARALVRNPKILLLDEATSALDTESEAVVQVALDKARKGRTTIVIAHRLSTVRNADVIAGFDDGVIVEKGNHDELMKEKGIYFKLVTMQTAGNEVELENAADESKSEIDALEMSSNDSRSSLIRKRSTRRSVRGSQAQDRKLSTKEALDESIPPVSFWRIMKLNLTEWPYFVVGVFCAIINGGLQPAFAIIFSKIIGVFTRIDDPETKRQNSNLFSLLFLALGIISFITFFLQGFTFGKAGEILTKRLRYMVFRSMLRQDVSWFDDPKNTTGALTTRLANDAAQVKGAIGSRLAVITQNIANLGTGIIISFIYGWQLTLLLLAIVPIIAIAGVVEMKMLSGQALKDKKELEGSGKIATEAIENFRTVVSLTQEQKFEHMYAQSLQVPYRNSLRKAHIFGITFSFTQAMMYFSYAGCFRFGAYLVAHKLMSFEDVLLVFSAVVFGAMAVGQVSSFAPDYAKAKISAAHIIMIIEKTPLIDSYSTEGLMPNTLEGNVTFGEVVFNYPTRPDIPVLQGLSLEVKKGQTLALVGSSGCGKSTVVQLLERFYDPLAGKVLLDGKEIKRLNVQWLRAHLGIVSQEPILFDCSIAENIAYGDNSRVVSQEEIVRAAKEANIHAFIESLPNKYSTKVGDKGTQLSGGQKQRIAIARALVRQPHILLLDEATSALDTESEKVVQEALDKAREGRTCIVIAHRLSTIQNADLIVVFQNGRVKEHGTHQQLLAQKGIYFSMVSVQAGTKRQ

[5] = molecular target: T2, ATP-dependent translocase ABCB1; test: P-gp JC-1 efflux blockade concentration-response – Jurkat-DNR cells, flow cytometry, set 2, dose response (AID 504569); assay type: functional; settings: read-out: EC50_MICROM_;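 also: potency of pump inhibitors that raise cellular JC-1 green fluorescence up to the nicardipine level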
[6] = general mammalian cell viability loss – activator set, cherry-pick, cytotoxicity control for miR-122 modulator project, dose response (AID 720690); assay type: functional, cell-based;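 also: HEK293T human cells scored for general mammalian cytotoxicity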
[7] = activation of miR-122 Renilla sensor silencing – cell-based, Huh7 psiCHECK-miR122, Renilla luciferase, cherry-picked, dose response (AID 651956); assay type: functional;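 also: huh7 hepatoma cells stably carrying a psiCHECK-2 miR-122 sensor plasmid; renilla luciferase signal reporting endogenous miR-122 activity after 48 h compound exposure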
Vero = test: viability loss in Vero cells – cell-based, plate reader, cherry-pick samples, cytotoxicity control, dose response (AID 687020); assay type: functional; settings: Chlorocebus sabaeus
[8] = T. cruzi growth inhibition in host cells, dose response, cell-based, plate reader, dry powder, set 2 (AID 652275); assay type: functional
[9] = anti-trypanosomal activity in BESM host cells – imaging, CA-I/72 strain, bovine embryo skeletal muscle, dry powder, dose response (AID 651885); assay type: functional, cell-based
Protein skinhead-1 = molecular target: T3, Protein skinhead-1 (Caenorhabditis elegans, UniProt P34707); assay type: functional
T3 sequence (P34707 whole entry): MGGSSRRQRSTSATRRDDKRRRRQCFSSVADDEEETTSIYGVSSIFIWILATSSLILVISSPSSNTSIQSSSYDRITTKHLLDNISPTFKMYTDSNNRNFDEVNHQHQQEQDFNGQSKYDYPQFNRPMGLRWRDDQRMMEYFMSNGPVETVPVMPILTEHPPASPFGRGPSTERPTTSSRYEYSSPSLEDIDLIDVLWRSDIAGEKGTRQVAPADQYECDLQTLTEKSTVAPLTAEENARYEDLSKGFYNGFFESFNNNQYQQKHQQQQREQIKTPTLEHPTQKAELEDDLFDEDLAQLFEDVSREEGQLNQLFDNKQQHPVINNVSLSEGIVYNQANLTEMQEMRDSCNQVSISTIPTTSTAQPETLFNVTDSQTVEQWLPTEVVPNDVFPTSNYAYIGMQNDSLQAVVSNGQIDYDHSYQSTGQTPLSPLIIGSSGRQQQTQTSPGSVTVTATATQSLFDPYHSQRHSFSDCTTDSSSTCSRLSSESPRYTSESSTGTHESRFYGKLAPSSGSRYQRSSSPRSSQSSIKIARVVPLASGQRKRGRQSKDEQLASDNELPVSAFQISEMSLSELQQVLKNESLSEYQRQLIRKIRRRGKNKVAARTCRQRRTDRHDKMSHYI

Mu-type opioid receptor = Mu-type opioid receptor (Homo sapiens, UniProt P35372); assay type: functional, cell-based;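 also: U2OS cells with beta-arrestin recruitment to OPRM1 by beta-gal complementation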
Chain of Mu-type opioid receptor (P35372 whole entry): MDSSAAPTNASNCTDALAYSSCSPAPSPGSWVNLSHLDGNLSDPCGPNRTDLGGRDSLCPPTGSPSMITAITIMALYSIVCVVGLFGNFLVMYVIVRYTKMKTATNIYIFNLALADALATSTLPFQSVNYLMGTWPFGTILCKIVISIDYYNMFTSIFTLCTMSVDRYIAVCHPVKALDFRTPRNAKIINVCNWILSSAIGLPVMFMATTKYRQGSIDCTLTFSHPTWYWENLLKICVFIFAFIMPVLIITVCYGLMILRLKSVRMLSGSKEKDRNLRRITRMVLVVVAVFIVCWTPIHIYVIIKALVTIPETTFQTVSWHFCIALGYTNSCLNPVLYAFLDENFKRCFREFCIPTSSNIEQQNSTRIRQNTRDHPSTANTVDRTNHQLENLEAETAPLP

[10] = molecular target: T4, Trace amine-associated receptor 1 (Homo sapiens, UniProt Q96RJ0); test: Counterscreen for agonists of the human trace amine associated receptor 1 (hTAAR1): Fluorescence-based cell-based high throughput dose response assay to identify hTAAR1 agonist that also desensitize TAAR1 receptor response.; assay type: functional
T4 sequence (Q96RJ0 whole entry): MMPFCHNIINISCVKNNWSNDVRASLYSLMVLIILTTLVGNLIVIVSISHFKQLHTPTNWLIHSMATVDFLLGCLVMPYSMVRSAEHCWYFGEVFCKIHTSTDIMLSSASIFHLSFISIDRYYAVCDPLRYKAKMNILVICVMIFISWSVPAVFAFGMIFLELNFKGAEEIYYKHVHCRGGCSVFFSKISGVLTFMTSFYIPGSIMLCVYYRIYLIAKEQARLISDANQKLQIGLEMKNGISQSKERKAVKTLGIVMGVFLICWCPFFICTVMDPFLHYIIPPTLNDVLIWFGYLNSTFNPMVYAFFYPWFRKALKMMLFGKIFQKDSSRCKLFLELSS

[11] = molecular target: T4, Trace amine-associated receptor 1; test: Fluorescence-based cell-based high throughput dose response assay to identify agonists of the human trace amine associated receptor 1 (TAAR1).; assay type: functional
Galanin receptor type 3 = Galanin receptor type 3 (Homo sapiens, UniProt O60755); test: Fluorescence-based cell-based primary high throughput dose response assay to identify antagonists of the Galanin Receptor 3 (GalR3).; assay type: functional
Chain of Galanin receptor type 3 (O60755 whole entry): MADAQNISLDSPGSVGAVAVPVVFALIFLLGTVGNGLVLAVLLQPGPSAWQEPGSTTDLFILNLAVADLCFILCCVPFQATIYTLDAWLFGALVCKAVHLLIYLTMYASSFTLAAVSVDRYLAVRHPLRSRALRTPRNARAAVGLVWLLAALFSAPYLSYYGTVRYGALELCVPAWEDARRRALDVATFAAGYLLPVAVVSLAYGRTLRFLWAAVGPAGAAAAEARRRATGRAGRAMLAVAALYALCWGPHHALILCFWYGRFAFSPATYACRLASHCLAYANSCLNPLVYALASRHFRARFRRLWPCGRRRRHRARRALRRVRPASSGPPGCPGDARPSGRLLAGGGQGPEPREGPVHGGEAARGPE

Large T antigen = Large T antigen (Simian virus 40, UniProt P03070); assay type: functional, Betapolyomavirus macacae;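 also: Confirmatory-stage PubChem screen for compounds that inhibit SV40 T antigen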
Chain of Large T antigen (P03070 whole entry): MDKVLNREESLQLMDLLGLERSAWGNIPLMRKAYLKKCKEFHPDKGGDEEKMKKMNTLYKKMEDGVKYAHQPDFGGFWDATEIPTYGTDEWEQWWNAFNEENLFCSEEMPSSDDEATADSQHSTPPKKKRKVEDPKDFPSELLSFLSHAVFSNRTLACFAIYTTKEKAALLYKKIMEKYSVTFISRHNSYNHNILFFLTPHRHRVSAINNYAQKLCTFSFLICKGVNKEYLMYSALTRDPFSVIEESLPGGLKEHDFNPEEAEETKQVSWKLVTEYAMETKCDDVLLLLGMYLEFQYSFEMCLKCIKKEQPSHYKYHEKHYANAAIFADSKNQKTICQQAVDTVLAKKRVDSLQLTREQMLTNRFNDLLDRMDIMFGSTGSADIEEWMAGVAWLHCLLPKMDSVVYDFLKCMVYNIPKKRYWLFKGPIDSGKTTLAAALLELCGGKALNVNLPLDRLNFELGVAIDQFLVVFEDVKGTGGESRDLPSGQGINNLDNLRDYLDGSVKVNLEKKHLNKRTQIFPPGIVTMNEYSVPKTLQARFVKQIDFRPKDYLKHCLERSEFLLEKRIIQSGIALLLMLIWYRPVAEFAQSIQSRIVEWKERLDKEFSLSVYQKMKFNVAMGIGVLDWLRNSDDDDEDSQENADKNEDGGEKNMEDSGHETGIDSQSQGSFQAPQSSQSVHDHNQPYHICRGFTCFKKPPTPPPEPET

[12] = molecular target: 5-hydroxytryptamine receptor 2A (Mus musculus, UniProt P35363); assay type: functional, cell-based;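 also: CHO-K1 cells with tagged receptor and beta-arrestin; agonist potency measured as compound-induced activation of the receptor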
Chain of 5-hydroxytryptamine receptor 2A (P35363 whole entry): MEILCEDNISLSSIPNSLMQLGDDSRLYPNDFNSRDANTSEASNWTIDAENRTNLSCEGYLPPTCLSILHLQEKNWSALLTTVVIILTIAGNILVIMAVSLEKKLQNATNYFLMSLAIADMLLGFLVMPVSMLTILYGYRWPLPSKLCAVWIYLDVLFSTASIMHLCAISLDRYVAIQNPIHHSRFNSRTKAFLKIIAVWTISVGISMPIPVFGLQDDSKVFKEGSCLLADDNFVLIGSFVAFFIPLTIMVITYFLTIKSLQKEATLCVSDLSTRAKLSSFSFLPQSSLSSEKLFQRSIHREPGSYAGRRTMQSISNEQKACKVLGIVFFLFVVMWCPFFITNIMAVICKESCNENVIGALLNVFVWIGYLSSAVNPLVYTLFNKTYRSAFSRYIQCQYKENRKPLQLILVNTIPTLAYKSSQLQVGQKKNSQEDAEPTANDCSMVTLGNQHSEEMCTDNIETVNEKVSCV

[13] = molecular target: FAD-linked sulfhydryl oxidase ALR (Homo sapiens, UniProt P55789); test: ALR-catalysed DTT oxidation blockers – biochemical, H2O2 detection, luminescence, cherry-pick, dose response (AID 493248)
Chain of FAD-linked sulfhydryl oxidase ALR (P55789 whole entry): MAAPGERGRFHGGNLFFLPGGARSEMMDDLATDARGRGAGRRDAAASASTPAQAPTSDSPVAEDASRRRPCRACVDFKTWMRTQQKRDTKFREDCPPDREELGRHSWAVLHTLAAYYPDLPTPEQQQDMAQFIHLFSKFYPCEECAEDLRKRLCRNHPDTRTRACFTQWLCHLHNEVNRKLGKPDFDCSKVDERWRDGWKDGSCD

Chain of Paired box protein Pax-8 (Q06710 whole entry, the tested form may be a part): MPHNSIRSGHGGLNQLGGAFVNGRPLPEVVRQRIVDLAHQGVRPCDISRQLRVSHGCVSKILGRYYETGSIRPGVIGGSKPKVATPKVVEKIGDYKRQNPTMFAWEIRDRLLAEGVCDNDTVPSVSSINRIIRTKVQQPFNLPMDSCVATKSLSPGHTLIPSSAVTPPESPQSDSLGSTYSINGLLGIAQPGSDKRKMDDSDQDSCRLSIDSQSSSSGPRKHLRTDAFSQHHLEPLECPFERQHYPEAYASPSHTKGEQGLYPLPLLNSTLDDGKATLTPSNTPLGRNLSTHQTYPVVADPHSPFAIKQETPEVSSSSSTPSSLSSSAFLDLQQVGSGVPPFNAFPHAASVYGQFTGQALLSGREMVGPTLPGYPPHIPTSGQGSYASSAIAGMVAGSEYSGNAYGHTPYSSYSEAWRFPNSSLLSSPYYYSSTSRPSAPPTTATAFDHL

For `C#CCN(C[C@@H]1[C@@H](OC(=O)NCc2ccc(OC)c(OC)c2)[C@@H](OC(=O)NCc2ccc(OC)c(OC)c2)Cn2c(=O)ccc(=O)n21)S(=O)(=O)c1ccc(C)cc1`, the AC50 (Paired box protein Pax-8) was 3.91 µM (active) and the IC50 [1] was 32.1 µM (inactive).

With `Nc1ccc2c(c1)-c1ccc(F)cc1C2=O` the IC50 [2] was 76.9 µM (inactive) and the IC50 [3] was 19.4 µM (active).

In the case of `O=C(c1cccc(Cl)c1)N1CCN(c2cc(-c3ccccc3)nc3cc(-c4cccc(Cl)c4)nn23)CC1`, the EC50 [4] is reported as 2.66 µM (active) and the EC50 [5] is reported as 3.16 µM (active).

With `C[C@H](NC(=O)C[C@H]1CC[C@@H]2[C@@H](COc3ccc(NS(=O)(=O)c4ccc(Cl)cc4)cc3C(=O)N2C)O1)c1ccccc1` the AC50 [6] was 29.5 µM (active) and the AC50 [7] was 18.2 µM (active).

For `O=C(NCCN1CCC2(CC1)C(=O)NCN2c1ccccc1)c1ccccc1F`, the AC50 (Vero) was 31.5 µM (active).

In the case of `CC(C)N1C[C@@H](CN(C)Cc2ccc(Cl)cc2)Oc2c(NC(=O)c3ccnn3C)cccc2C1=O`, the AC50 [8] is reported as 0.334 µM (active).

In the case of `CC(C)N1C[C@H](C)[C@@H](CN(C)C(=O)OC(C)(C)C)Oc2c(NC(=O)c3ccncc3)cccc2C1=O`, the IC50 [9] is reported as > 20 µM (inactive).

With `Oc1cc2c(c(Cl)c1O)CCNCC2c1ccccc1` (centres undefined) the IC50 (Protein skinhead-1) was > 100 µM (inactive), the EC50 (Mu-type opioid receptor) was 92.5 µM (inactive) and the IC50 [10] was > 29.9 µM (inactive). For the same compound, the EC50 [11] was 6.54 µM (active), the IC50 (Galanin receptor type 3) was 3.83 µM (active) and the IC50 (Large T antigen) was > 100 µM (active). The EC50 [12] was 8.14 µM (active) and the AC50 [13] was 3.83 µM (active).
